The results in this text go back to the supplement of paper PMC10307832.

What all share (assay): relative viability (nuclei count vs DMSO), 5 days (fraction); higher = more cells survive
Compound in the assay “PAC-1 + Alpelisib”: C=CCc1cccc(/C=N/NC(=O)CN2CCN(Cc3ccccc3)CC2)c1O [PAC-1] + Cc1nc(NC(=O)N2CCC[C@H]2C(N)=O)sc1-c1ccnc(C(C)(C)C(F)(F)F)c1 [Alpelisib] (partner 2 µM)
The essentials: (§1)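 Cells from lung cancer lines were seeded into 1536-well plates and, one day later, dosed by pin tool. Treatments were either a single drug or a fixed dose of an anchor drug with five library-drug doses (not always all listed) in √10 steps. After 5 days, nuclei were stained in a one-step fixation (final 0.05% Triton X-100, 1% formaldehyde, 1 ug/ml Hoechst) and counted on 4× images, and relative viability is the treated-to-vehicle nuclei ratio, as the median of duplicate plates.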

Compound in the assay “Ibrutinib + Pictilisib”: C=CC(=O)N1CCC[C@@H](n2nc(-c3ccc(Oc4ccccc4)cc3)c3c(N)ncnc32)C1 [Ibrutinib] + CS(=O)(=O)N1CCN(Cc2cc3nc(-c4cccc5[nH]ncc45)nc(N4CCOCC4)c3s2)CC1 [Pictilisib] (partner 1 µM)
The essentials:
as §1

Compound in the assay “PAC-1 + Lapatinib”: C=CCc1cccc(/C=N/NC(=O)CN2CCN(Cc3ccccc3)CC2)c1O [PAC-1] + CS(=O)(=O)CCNCc1ccc(-c2ccc3ncnc(Nc4ccc(OCc5cccc(F)c5)c(Cl)c4)c3c2)o1 [Lapatinib] (partner 2 µM)
The essentials: as §1

Compound in the assay “PAC-1 + Trametinib”: C=CCc1cccc(/C=N/NC(=O)CN2CCN(Cc3ccccc3)CC2)c1O [PAC-1] + CC(=O)Nc1cccc(-n2c(=O)n(C3CC3)c(=O)c3c(Nc4ccc(I)cc4F)n(C)c(=O)c(C)c32)c1 [Trametinib] (partner 0.02 µM)
The essentials:
as §1

Take SK-MES-1: the relative viability in the assay with PAC-1 + Alpelisib (first compound 0.02 µM) turned out to be 0.845; with PAC-1 + Alpelisib (first compound 0.06325 µM) it was 0.908; with PAC-1 + Alpelisib (first compound 0.2 µM), 0.878; with PAC-1 + Alpelisib (first compound 2 µM) it was 0.955; in the assay with Ibrutinib + Pictilisib (first compound 0.005 µM) it was 0.307; in the assay with Ibrutinib + Pictilisib (first compound 0.01581 µM), 0.274. For the same cell line, the relative viability with Ibrutinib + Pictilisib (first compound 0.05 µM) turned out to be 0.254; with Ibrutinib + Pictilisib (first compound 0.1581 µM) it was 0.342; with Ibrutinib + Pictilisib (first compound 0.5 µM), 0.198; with PAC-1 + Lapatinib (first compound 0.02 µM) it was 0.455; in the assay with PAC-1 + Lapatinib (first compound 0.06325 µM) it was 0.457; in the assay with PAC-1 + Lapatinib (first compound 0.2 µM), 0.443. Further, the relative viability with PAC-1 + Lapatinib (first compound 2 µM) is 0.445; with PAC-1 + Trametinib (first compound 0.02 µM) it was 0.498; with PAC-1 + Trametinib (first compound 0.06325 µM), 0.529; with PAC-1 + Trametinib (first compound 0.2 µM), 0.543; in the assay with PAC-1 + Trametinib (first compound 2 µM), 0.622.
